Laboratory results as given in patent US8557527B2 (HistoRx, Inc., priority 2008, dated 2013).

How the values were obtained:
[1] = tested on: chronic myelogenous leukemia and gastrointestinal stromal tumors; conditions: patients with chronic myelogenous leukemia and gastrointestinal stromal tumors; cited from earlier work
GBM = assay: Clinical outcome of RT+Gefitinib (RTOG 0211, Array 19) versus RT alone (historical, Array 8) patients stratified by AQUA biomarker level
[2] = tested on: Newly Diagnosed Glioblastoma (GBM); conditions: Gefitinib+Radiation vs historical controls; cited from earlier work

| Compound | efficacy as therapy [1] | toxicity as therapy [1] | overall survival, RTOG 0211 versus historical controls (RT alone) (GBM; patients with elevated ratio of cytoplasmic to nuclear pAKT) | overall survival times, Gefitinib+RT versus RT only (GBM; patients with intermediate-to-high levels of Src expression) | clinical outcome, RT+Gefitinib versus RT alone (GBM; patients with lower levels of PTEN expression, p=0.08) | survival compared to historical controls [2] |
| --- | --- | --- | --- | --- | --- | --- |
| Cc1ccc(NC(=O)c2ccc(CN3CCN(C)CC3)cc2)cc1Nc1nccc(-c2cccnc2)n1 [STI-571] | highly effective | non-toxic | – | – | – | – |
| COc1cc2ncnc(Nc3ccc(F)c(Cl)c3)c2cc1OCCCN1CCOCC1 [Gefitinib] | – | – | improved overall survival | significantly worse overall survival times | trend towards improved outcome | survival was not significantly improved |
